# Laboratory results from article PMC11079024, “Identification of a family of species-selective complex I inhibitors as potential anthelmintics” (Nature Communications, 2024).
# Like-named read-outs stand apart in the source and are kept apart here.
# Tests used:
# L1 wild-type C. elegans [1] = test: microbe, parasite or virus in culture; settings: Caenorhabditis elegans, read-out: C. elegans KCN Survival Assay LC50, estimated from fitted dose-response curves; mean of at least two biological replicates
# in vitro = settings: human; for CC50 at 2 days: HEK293 Cell Viability Assay LC50, HEK293 cells, estimated from fitted dose-response curves; for viability at 2 days, 3.13 µM / viability at 2 days, 6.25 µM / viability at 2 days, 12.5 µM / viability at 2 days, 25 µM / viability at 2 days, 50 µM / viability at 2 days, 100 µM: HEK293 cells (Flp-In-293), HEK293 viability
# L1 wild-type C. elegans [2] = settings: for Screen "Hit": 50 μM, KCN survival assay, hit = relative motility below 0.25
# [3] = target: B. taurus (heart) complex I (Bos taurus, UniProt P03887+P17694+P42026); test: biochemical; format: biochemical; settings: for IC50: B. taurus heart mitochondria, read-out: B. taurus Complex I IC50; for activity at 0.0001 µM / activity at 0.0005 µM / activity at 0.001 µM / activity at 0.0025 µM / activity at 0.005 µM / activity at 0.013 µM / activity at 0.025 µM / activity at 0.063 µM / activity at 0.125 µM / activity at 0.313 µM / activity at 0.625 µM / activity at 1.5 µM / activity at 3 µM / activity at 15 µM / activity at 37.5 µM / activity at 75 µM: read-out: B. taurus mitochondrial complex I activity; for Log IC50 B. taurus complex I: log10 of IC50 in µM, B. taurus mitochondria
# Outline: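 Complex I activity followed as DCIP reduction (600 nm, 30 s reads, 15 min) with 80 μM NADH and 60 μM decylubiquinone in 25 mM KPi pH 7.5 containing 2 μM antimycin A and 2 mM KCN. Freeze-thawed mouse or bovine heart mitochondria at 0.2 mg/mL; initial-rate percent of solvent control, single-point 100 μM or dose-response.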
# [4] = tested on: ben-1 mutant (ECA882) C. elegans; test: microbe, parasite or virus in culture; settings: Caenorhabditis elegans
# Outline: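 L1 larvae (~2 worms/μL in M9) in liquid NGM with 2-fold concentrated E. coli HB101, compound at 1% DMSO, 6 days at 20 °C shaking 165 rpm. Well images scored as summed worm-associated pixels, normalized to DMSO controls; relative viability averaged over at least three biological replicates.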
# [5] = Dose 0.2 µM, mean of at least three biological replicates
# [6] = read-out: C. elegans (ben-1) Development & Viability Assay LC50
# [7] = read-out: C. elegans ben-1 log10 LC50 (converted)
# [8] = mean of at least two biological replicates
# [9] = estimated from fitted dose-response curves
# [10] = read-out: C. elegans ben-1(e1880) development/viability
# B. taurus (heart) complex I, sequence (P03887 whole entry): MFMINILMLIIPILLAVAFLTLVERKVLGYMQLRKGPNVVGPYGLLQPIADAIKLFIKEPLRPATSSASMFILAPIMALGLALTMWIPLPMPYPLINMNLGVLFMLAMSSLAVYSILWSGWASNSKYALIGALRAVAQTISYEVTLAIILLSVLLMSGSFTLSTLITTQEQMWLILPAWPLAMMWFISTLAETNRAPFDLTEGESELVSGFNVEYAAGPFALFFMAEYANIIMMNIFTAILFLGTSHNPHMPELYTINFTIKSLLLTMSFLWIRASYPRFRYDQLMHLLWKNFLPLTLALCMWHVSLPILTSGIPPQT
# B. taurus (heart) complex I, sequence (P17694 34-463): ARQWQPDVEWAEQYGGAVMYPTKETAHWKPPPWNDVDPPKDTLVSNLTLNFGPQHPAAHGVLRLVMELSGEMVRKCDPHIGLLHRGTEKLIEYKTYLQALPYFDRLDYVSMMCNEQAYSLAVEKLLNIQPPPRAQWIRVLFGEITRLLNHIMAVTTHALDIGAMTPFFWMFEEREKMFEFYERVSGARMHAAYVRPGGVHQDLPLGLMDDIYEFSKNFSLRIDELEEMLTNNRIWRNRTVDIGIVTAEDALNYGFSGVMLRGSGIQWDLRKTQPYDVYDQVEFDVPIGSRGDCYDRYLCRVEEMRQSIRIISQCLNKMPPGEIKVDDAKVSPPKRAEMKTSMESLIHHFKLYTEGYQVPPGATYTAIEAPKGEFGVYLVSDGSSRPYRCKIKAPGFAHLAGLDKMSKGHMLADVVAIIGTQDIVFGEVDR
# B. taurus (heart) complex I, sequence (P42026 38-216): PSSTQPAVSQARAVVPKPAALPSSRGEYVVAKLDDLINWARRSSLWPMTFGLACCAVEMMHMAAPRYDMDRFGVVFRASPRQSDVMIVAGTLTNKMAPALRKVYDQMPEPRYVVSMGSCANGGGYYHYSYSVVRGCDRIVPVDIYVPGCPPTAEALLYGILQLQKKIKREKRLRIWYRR
smiles,measurement,setting,value
Clc1ccc(Cn2cnc3ccccc32)cc1Cl [Compound 5571325],LC50,L1 wild-type C. elegans [1],13.1 µM
same,CC50 at 2 days,in vitro,86.4 µM
same,"viability at 2 days, 3.13 µM",in vitro,73.5%
same,"viability at 2 days, 6.25 µM",in vitro,52.9%
same,"viability at 2 days, 12.5 µM",in vitro,49.8%
same,"viability at 2 days, 25 µM",in vitro,60.7%
same,"viability at 2 days, 50 µM",in vitro,57.7%
same,"viability at 2 days, 100 µM",in vitro,16.3%
same,"Screen ""Hit""",L1 wild-type C. elegans [2],Y (hits were identified as compounds that reduced relative motility below 0.25 (75% reduction))
same,C. elegans KCN Survival,L1 wild-type C. elegans [2]; [5],1.000
same,C. elegans KCN Survival,L1 wild-type C. elegans [2]; Dose 0.39 µM,0.996
same,C. elegans KCN Survival,L1 wild-type C. elegans [2]; Dose 1.56 µM,1.008
same,C. elegans KCN Survival,L1 wild-type C. elegans [2]; Dose 3.13 µM,0.957
same,C. elegans KCN Survival,L1 wild-type C. elegans [2]; Dose 6.25 µM,0.819
same,C. elegans KCN Survival,L1 wild-type C. elegans [2]; Dose 12.5 µM,0.586
same,C. elegans KCN Survival,L1 wild-type C. elegans [2]; Dose 25 µM,0.133
same,C. elegans KCN Survival,L1 wild-type C. elegans [2]; Dose 50 µM,0.122
same,C. elegans KCN Survival,L1 wild-type C. elegans [2]; Dose 100 µM,0.206
same,IC50,[3],11.5 µM
same,activity at 0.0001 µM,[3],97.2%
same,activity at 0.0005 µM,[3],100%
same,activity at 0.001 µM,[3],100%
same,activity at 0.0025 µM,[3],99.4%
same,activity at 0.005 µM,[3],97.3%
same,activity at 0.013 µM,[3],88.2%
same,activity at 0.025 µM,[3],96.9%
same,activity at 0.063 µM,[3],95.3%
same,activity at 0.125 µM,[3],96%
same,activity at 0.313 µM,[3],92.8%
same,activity at 0.625 µM,[3],96.3%
same,activity at 1.5 µM,[3],89.7%
same,activity at 3 µM,[3],83.9%
same,activity at 15 µM,[3],36%
same,activity at 37.5 µM,[3],5.23%
same,activity at 75 µM,[3],1.54%
same,Log IC50 B. taurus complex I,[3],1.06 µM
same,LC50,[4]; [6],69.5 µM
same,LC50,[4]; [7],69.5 µM
Cc1ccc(Cn2c(C)nc3ccccc32)cc1 [Compound 5651984],LC50,L1 wild-type C. elegans [1],7.24 µM
same,CC50 at 2 days,in vitro; [8],95.4 µM
same,"Screen ""Hit""",L1 wild-type C. elegans [2],Y (hits were identified as compounds that reduced relative motility below 0.25 (75% reduction))
same,IC50,[3]; [9],0.99 µM
same,Log IC50 B. taurus complex I,[3],-0.00436 µM
same,LC50,[4]; [6],108 µM
same,LC50,[4]; [7],108 µM
Nc1nc2ccccc2n1Cc1ccc(Cl)cc1 [Compound 5652765],LC50,L1 wild-type C. elegans [1],16.9 µM
same,CC50 at 2 days,in vitro; [8],58.9 µM
same,"viability at 2 days, 3.13 µM",in vitro,94.2%
same,"viability at 2 days, 6.25 µM",in vitro,94%
same,"viability at 2 days, 12.5 µM",in vitro,92.9%
same,"viability at 2 days, 25 µM",in vitro,94.5%
same,"viability at 2 days, 50 µM",in vitro,62.3%
same,"viability at 2 days, 100 µM",in vitro,10%
same,"Screen ""Hit""",L1 wild-type C. elegans [2],Y (hits were identified as compounds that reduced relative motility below 0.25 (75% reduction))
same,C. elegans KCN Survival,L1 wild-type C. elegans [2]; [5],0.973
same,C. elegans KCN Survival,L1 wild-type C. elegans [2]; Dose 0.39 µM,1.034
same,C. elegans KCN Survival,L1 wild-type C. elegans [2]; Dose 1.56 µM,1.067
same,C. elegans KCN Survival,L1 wild-type C. elegans [2]; Dose 3.13 µM,1.051
same,C. elegans KCN Survival,L1 wild-type C. elegans [2]; Dose 6.25 µM,1.001
same,C. elegans KCN Survival,L1 wild-type C. elegans [2]; Dose 12.5 µM,0.758
same,C. elegans KCN Survival,L1 wild-type C. elegans [2]; Dose 25 µM,0.271
same,C. elegans KCN Survival,L1 wild-type C. elegans [2]; Dose 50 µM,0.140
same,C. elegans KCN Survival,L1 wild-type C. elegans [2]; Dose 100 µM,0.216
same,IC50,[3]; [9],2.27 µM
same,activity at 0.0001 µM,[3],93.5%
same,activity at 0.0005 µM,[3],96.1%
same,activity at 0.001 µM,[3],91%
same,activity at 0.0025 µM,[3],95.6%
same,activity at 0.005 µM,[3],88.8%
same,activity at 0.013 µM,[3],88.3%
same,activity at 0.025 µM,[3],83.3%
same,activity at 0.063 µM,[3],87.9%
same,activity at 0.125 µM,[3],79.5%
same,activity at 0.313 µM,[3],76.3%
same,activity at 0.625 µM,[3],72.5%
same,activity at 1.5 µM,[3],54.3%
same,activity at 3 µM,[3],36.4%
same,activity at 15 µM,[3],4.61%
same,activity at 37.5 µM,[3],0.42%
same,activity at 75 µM,[3],0.3%
same,Log IC50 B. taurus complex I,[3],0.36 µM
same,LC50,[4]; [6],71.7 µM
same,viability at 1 µM,[4]; [10],98%
same,viability at 2 µM,[4]; [10],94.6%
same,viability at 3.9 µM,[4]; [10],92.8%
same,viability at 15.6 µM,[4]; [10],89.9%
same,viability at 31.3 µM,[4]; [10],76.1%
same,viability at 62.5 µM,[4]; [10],63.7%
same,viability at 125 µM,[4]; [10],13.8%
same,viability at 250 µM,[4]; [10],7.4%
same,viability at 500 µM,[4]; [10],6.3%
same,LC50,[4]; [7],71.6 µM
